pIC50: −log10 of the molar value.
Experiments:
[1] = test system: Staphylococcus aureus ATCC 25923; assay: Biofilm inhibition assay (crystal violet); format: cell-based
Protocol: The ability of the candidate compounds to inhibit biofilm formation was evaluated by determining the minimum biofilm inhibitory concentration (MBIC) against the biofilm-forming strains Staphylococcus aureus ATCC 25923 and Listeria monocytogenes ATCC 7644. Overnight bacterial cultures were diluted in fresh, pre-warmed Mueller–Hinton broth (MHB) and incubated at 37 °C with constant shaking at 220 rpm. Once the cultures reached the exponential growth phase (OD600 = 0.3–0.5), they were standardized to a final concentration of 4 × 10^6 CFU/mL.
Plates were incubated at 37 °C for 24 to 48 h, depending on the bacterial strain. After incubation, the planktonic cells were carefully aspirated to preserve the integrity of the biofilm layer. Wells were gently rinsed with sterile ultrapure Milli-Q water and air-dried at 60 °C for 1 h to fix the biofilms. Biofilm formation was quantified using a crystal violet (CV) staining method. Wells were stained with 100 µL of 0.1% CV solution and incubated at room temperature for 1 h. Excess dye was removed by rinsing with sterile ultrapure Milli-Q water, followed by air-drying. Bound CV was solubilized with 100 µL of 70% ethanol and incubated for 30 min. The solubilized dye was transferred to a fresh plate, and absorbance was measured at 595 nm using a microplate reader (Bio-Tek EL808, Winooski, VT, USA). Absorbance values were directly proportional to biofilm biomass. Untreated bacterial cultures served as positive controls for biofilm formation, while sterile MHB served as the negative control.

[2] = test system: Staphylococcus aureus Clinical/MRSA; assay: Broth microdilution MIC; format: cell-based; settings: Staphylococcus aureus, MRSA, read-out: Minimum Inhibitory Concentrations (MIC)
[3] = test system: RPE1 cells; assay: Cytotoxicity MTS assay; format: cell-based, human; settings: Homo sapiens, RPE-1, 48 h, read-out: IC50 RPE1
Protocol: (§1) The cytotoxic potential of the selected drug candidates was evaluated using the CellTiter 96® AQueous One Solution Cell Proliferation Assay (Promega, Madison, WI, USA), following the manufacturer’s protocol. Human cell lines RPE1 and HEK293 were cultured at 37 °C in a humidified incubator with 5% CO2. Test compounds were dissolved in the appropriate growth medium and serially diluted across a range of concentrations in 96-well microtiter plates. Each well was seeded with 5000 cells and incubated for 48 h under standard culture conditions. Following this incubation period, 20 µL of MTS reagent was added to each well, and the plates were further incubated for 3 h to allow for color development. Absorbance was measured at 490 nm using a microplate reader to determine cell viability. Cytotoxicity was quantified as the half-maximal inhibitory concentration (IC50), defined as the concentration of compound that reduced cell viability by 50%. […] IC50 values were calculated using GraFit 6.0 software by plotting compound concentration against absorbance and fitting the data to a sigmoidal dose–response curve.

[4] = test system: HEK293 cells; assay: Cytotoxicity MTS assay; format: cell-based, human; settings: Homo sapiens, HEK293, 48 h, read-out: IC50 HEK293
Protocol: as §1

[5] = test system: Pseudomonas aeruginosa ATCC 27853; assay: Broth microdilution MIC; format: cell-based; settings: for MIC: Pseudomonas aeruginosa, ATCC27853, read-out: Minimum Inhibitory Concentrations (MIC)
[6] = test system: Listeria monocytogenes ATCC 7644; assay: Time-resolved growth kinetics; format: cell-based; settings: MIC and ½ MIC
Protocol: The antimicrobial activity of the candidate compounds against Staphylococcus aureus ATCC 25923 and Listeria monocytogenes ATCC 7644 was further evaluated using a time-resolved growth kinetics assay in 96-well microtiter plates. Overnight bacterial cultures were diluted in fresh, pre-warmed Mueller–Hinton broth (MHB) and incubated at 37 °C with orbital shaking at 220 rpm. Upon reaching the exponential growth phase (OD600 = 0.3–0.5), cultures were standardized to a final concentration of 5 × 10^4 CFU/mL. Aliquots (50 µL) of the standardized inoculum were dispensed into wells containing either no antimicrobial agent (negative control) or the test compounds at concentrations corresponding to ½ MIC and MIC. Bacterial growth was continuously monitored over a 24 h period by measuring absorbance at 595 nm every 10 min using a Bio-Tek EL808 microplate reader (Winooski, VT, USA). Growth kinetics were assessed by comparing the optical density profiles of treated samples against the untreated control. Each experiment was performed independently twice, with all conditions tested in triplicate. Data are presented as the mean values of these replicates.

[7] = test system: Staphylococcus aureus ATCC 25923; assay: Time-kill kinetics assay; format: cell-based
Protocol: To assess the temporal dynamics of bacterial viability upon exposure to the test compounds, a time-kill kinetics assay was performed using the Gram-positive reference strain Staphylococcus aureus ATCC 25923. An overnight culture of the strain was subcultured into fresh, pre-warmed Mueller–Hinton broth (MHB) and incubated under aerobic conditions at 37 °C with agitation (220 rpm) until reaching the early exponential growth phase. The bacterial suspension was then standardized to an initial concentration of approximately 5 × 10^5 CFU/mL. […] Wells containing untreated bacterial cultures served as growth controls. Immediately after mixing, a 10 µL sample from each well was withdrawn, diluted in 990 µL of MHB, and serially diluted tenfold up to 10^−6. From each dilution, 20 µL was plated on MHB agar using a sterile loop to determine the initial bacterial count (time zero). The treated plates were incubated at 37 °C, and additional samples were collected at predetermined time points (2, 4, 6, 8, 12, and 24 h) following the same dilution and plating protocol. After 24 h of incubation at 37 °C, colonies were counted, and viable bacterial counts were expressed as log10 CFU/mL for each time point. Bactericidal activity was evaluated by plotting the log10 CFU/mL over time, providing a dynamic profile of the compound’s killing kinetics.

[8] = test system: Staphylococcus aureus ATCC 33591 (methicillin-resistant); assay: Broth microdilution MIC; format: cell-based; settings: Staphylococcus aureus, ATCC33591, read-out: Minimum Inhibitory Concentrations (MIC)
[9] = test system: Listeria monocytogenes ATCC 7644; assay: Broth microdilution MIC; format: cell-based; settings: for MIC: Listeria monocytogenes, ATCC7644, read-out: Minimum Inhibitory Concentrations (MIC), Listeria monocytogenes ATCC 7644
[10] = test system: Escherichia coli ATCC 25922; assay: Broth microdilution MIC; format: cell-based; settings: Escherichia coli, ATCC25922, read-out: Minimum Inhibitory Concentrations (MIC)
[11] = test system: Salmonella enterica (food isolate); assay: Broth microdilution MIC; format: cell-based; settings: read-out: Minimum Inhibitory Concentrations (MIC)
[12] = S. aureus ATCC 25923, 6.25 µg/mL
[13] = S. aureus ATCC 25923, 12.5 µg/mL
[14] = S. aureus ATCC 25923, 100 µg/mL

Row | SMILES | biofilm inhibition [1, 12] [%] | biofilm inhibition [1, 13] [%] | biofilm inhibition ([1]; S. aureus ATCC 25923, 25 µg/mL) [%] | biofilm inhibition ([1]; S. aureus ATCC 25923, 50 µg/mL) | biofilm inhibition [1, 14] | MIC [2] [µM] | pIC50 [3] | pIC50 [4] | Minimum Inhibitory Concentrations (MIC) ([5]; Pseudomonas aeruginosa ATCC 27853) | MIC [5] [µM] | effect on bacterial growth [6] | time to complete eradication / elimination of viable cells (CFU) ([7]; S. aureus ATCC 25923) [h] | MIC [8] [µM] | Minimum Inhibitory Concentrations (MIC) ([9]; Listeria monocytogenes ATCC 7644) [µM] | MIC [9] [µM] | MIC [10] [µM] | MIC [11] [µM] | time to rapid bactericidal activity ([7]; S. aureus ATCC 25923) [h] | time to complete killing ([7]; S. aureus ATCC 25923, 2 × MIC) [h]
1 | CCCCCCCCCCCCCCCCNC1C[N+]2(CCCCCC[N+]34CCC(CC3)C(NCCCCCCCCCCCCCCCC)C4)CCC1CC2 (racemic) [2(QC16)6, (±)-1,1′-(Hexane-1,6-diyl) bis(3-(hexadecylamino)quinuclidinium) dibromide] | 6 | > 30 | > 80 | > 90% | 95% | 38 | 5.30 | 5.15 | largely inactive | > 75 | pronounced inhibitory effect | ≤ 2 | 5 | 19 | 38 | 19 | 75 |  | 
2 | CCCCCCCCCCCCCCCCNC1C[N+]2(CCC[N+]34CCC(CC3)C(NCCCCCCCCCCCCCCCC)C4)CCC1CC2 (racemic) [2(QC16)3, (±)-1,1′-(Propane-1,3-diyl) bis(3-(hexadecylamino)quinuclidinium) dibromide] | > 2 | 11 | > 80 | exceeding 90% | exceeding 90% | > 75 | 4.16 | 4.68 |  | > 75 | pronounced inhibitory effect |  | 19 |  | 9 | > 75 | > 75 | ≤ 3 | 2

Reference: publication PMC12473123, “Structure–Function Insights into Quinuclidine-3-One BisQACs: Synthesis, Modulation of Bacterial Resistance, Structure–Activity Relationship, and Biological Profiling” (Pharmaceuticals, 2025)
